Experimental data: ChEMBL document CHEMBL5291721, “A preclinical secondary pharmacology resource illuminates target-adverse drug reaction associations of marketed drugs” (Nat Commun, 2023)

Experiments:
[1] = target: Voltage-gated inwardly rectifying potassium channel KCNH2 (Homo sapiens, UniProt Q12809); type: functional
[2] = target: Gamma-aminobutyric acid receptor subunit alpha-1 (Rattus norvegicus, UniProt P62813)
Further: assay procedure not described here.

Sequence of Gamma-aminobutyric acid receptor subunit alpha-1 (P62813 whole entry): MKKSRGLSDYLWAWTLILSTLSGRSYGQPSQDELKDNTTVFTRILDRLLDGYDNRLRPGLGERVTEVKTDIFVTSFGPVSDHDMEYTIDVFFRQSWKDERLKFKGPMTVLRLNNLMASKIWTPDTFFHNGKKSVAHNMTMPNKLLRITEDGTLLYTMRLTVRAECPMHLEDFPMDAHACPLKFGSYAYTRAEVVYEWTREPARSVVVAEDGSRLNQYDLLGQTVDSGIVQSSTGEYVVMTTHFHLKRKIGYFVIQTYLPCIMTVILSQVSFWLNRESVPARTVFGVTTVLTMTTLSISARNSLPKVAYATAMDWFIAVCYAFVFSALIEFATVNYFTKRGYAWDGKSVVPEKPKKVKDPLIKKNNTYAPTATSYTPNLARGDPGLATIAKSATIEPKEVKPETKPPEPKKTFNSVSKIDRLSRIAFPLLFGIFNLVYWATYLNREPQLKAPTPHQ
Sequence of Voltage-gated inwardly rectifying potassium channel KCNH2 (Q12809 whole entry): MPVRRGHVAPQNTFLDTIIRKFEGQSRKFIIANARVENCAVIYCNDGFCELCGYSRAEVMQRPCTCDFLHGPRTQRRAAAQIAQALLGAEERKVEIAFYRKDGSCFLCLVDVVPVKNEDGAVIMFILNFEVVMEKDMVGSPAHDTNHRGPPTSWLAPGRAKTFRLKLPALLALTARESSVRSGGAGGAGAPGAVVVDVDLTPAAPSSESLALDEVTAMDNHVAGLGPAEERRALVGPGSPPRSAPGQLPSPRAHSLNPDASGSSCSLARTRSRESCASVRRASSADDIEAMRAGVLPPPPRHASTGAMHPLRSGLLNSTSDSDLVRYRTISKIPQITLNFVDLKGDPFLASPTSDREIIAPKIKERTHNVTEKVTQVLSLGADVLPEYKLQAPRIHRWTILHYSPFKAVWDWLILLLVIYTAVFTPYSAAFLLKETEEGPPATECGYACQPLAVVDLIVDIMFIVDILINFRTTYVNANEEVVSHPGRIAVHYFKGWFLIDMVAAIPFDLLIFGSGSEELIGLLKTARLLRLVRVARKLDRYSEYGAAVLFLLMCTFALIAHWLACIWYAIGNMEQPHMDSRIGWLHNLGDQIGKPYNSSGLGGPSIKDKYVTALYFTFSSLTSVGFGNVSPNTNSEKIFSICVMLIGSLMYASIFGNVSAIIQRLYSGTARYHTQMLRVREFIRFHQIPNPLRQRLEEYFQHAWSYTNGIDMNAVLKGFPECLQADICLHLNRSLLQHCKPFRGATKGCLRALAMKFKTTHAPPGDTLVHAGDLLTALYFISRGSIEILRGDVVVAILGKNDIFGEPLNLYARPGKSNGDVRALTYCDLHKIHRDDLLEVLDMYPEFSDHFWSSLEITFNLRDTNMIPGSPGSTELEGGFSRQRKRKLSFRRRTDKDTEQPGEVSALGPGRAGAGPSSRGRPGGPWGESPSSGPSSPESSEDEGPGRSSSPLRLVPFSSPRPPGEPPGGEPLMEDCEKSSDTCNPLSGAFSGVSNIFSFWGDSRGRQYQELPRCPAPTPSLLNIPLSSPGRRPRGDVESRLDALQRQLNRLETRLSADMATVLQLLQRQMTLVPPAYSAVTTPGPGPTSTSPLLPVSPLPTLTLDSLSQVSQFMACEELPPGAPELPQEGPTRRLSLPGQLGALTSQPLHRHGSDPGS

SMILES	AC50 [1]	AC50 [2]
C[N+]1(C)CCC(=C(c2ccccc2)c2ccccc2)CC1	0.187 µM	> 10 µM
C[N+](C)(C)CCOP(=O)([O-])OC[C@H](O)CO	> 30 µM	> 30 µM
CN(C)Cc1nnc2n1-c1ccc(Cl)cc1C(c1ccccc1)=NC2 [ADINAZOLAM]	> 30 µM	> 10 µM
CN(C)C/C=C/C(=O)Nc1cc2c(Nc3ccc(F)c(Cl)c3)ncnc2cc1O[C@H]1CCOC1 [AFATINIB]	–	> 30 µM
Cc1ccccc1-n1c(CF)nc2ccc(N)cc2c1=O [AFLOQUALONE]	> 30 µM	> 10 µM
CCC1(c2ccc(N)cc2)CCC(=O)NC1=O (stereo not given) [AMINOGLUTETHIMIDE]	> 30 µM	> 30 µM
CC1=C(C(=O)OC(C)C)C(c2cccc([N+](=O)[O-])c2)C(C(=O)OC2CN(C(c3ccccc3)c3ccccc3)C2)=C(N)N1 (stereo not given) [AZELNIDIPINE]	> 30 µM	> 30 µM
CC(Cc1cccc(C(F)(F)F)c1)NCCOC(=O)c1ccccc1 (stereo not given) [BENFLUOREX]	5.6 µM	–
CCOC(=O)c1ccc(N)cc1 [BENZOCAINE]	> 30 µM	> 10 µM
CC(C)(Oc1ccc(CCNC(=O)c2ccc(Cl)cc2)cc1)C(=O)O [BEZAFIBRATE]	> 30 µM	> 10 µM
C/C=C(/C(=C/C)c1ccc(O)cc1)c1ccc(O)cc1 [DIENESTROL]	> 30 µM	> 10 µM
CN[C@]1(c2ccccc2Cl)CCCCC1=O [ESKETAMINE]	> 30 µM	> 30 µM
COc1ccc([C@@H]2CC(=O)c3c(O)cc(O)cc3O2)cc1O [HESPERETIN]	> 30 µM	> 10 µM
CNCCc1ccc(OC(=O)C(C)C)c(OC(=O)C(C)C)c1 [IBOPAMINE]	> 30 µM	> 30 µM
CN(C)CCCN1c2ccccc2CCc2ccccc21 [IMIPRAMINE]	–	> 10 µM
CCOC(=O)C1=C(C)NC(C)=C(C(=O)OCC)C1c1ccccc1/C=C/C(=O)OC(C)(C)C [LACIDIPINE]	17.8 µM	> 30 µM

SMILES	AC50 [1]	AC50 [2]
CCC[C@@H]1C[C@@H](C(=O)N[C@@H]([C@H]2O[C@H](SC)[C@H](O)[C@@H](O)[C@H]2O)[C@@H](C)O)N(C)C1 [LINCOMYCIN]	> 30 µM	> 10 µM
COC(=O)C1=C(C)NC(C)=C(C(=O)OCCN2CCN(C(c3ccccc3)c3ccccc3)CC2)C1c1cccc([N+](=O)[O-])c1 (stereo not given) [MANIDIPINE 6300]	0.82 µM	> 30 µM
C=C1c2cccc(O)c2C(=O)C2=C(O)[C@]3(O)C(=O)C(C(N)=O)=C(O)[C@@H](N(C)C)[C@@H]3[C@@H](O)[C@H]12 [METHACYCLINE]	> 30 µM	> 10 µM
CN(Cc1cnc2nc(N)nc(N)c2n1)c1ccc(C(=O)N[C@@H](CCC(=O)O)C(=O)O)cc1 [METHOTREXATE]	> 30 µM	> 10 µM
Cc1ccccc1N1C(=O)c2cc(S(N)(=O)=O)c(Cl)cc2NC1C (stereo not given) [METOLAZONE]	> 30 µM	> 10 µM
O=C(O)c1cccnc1Nc1cccc(C(F)(F)F)c1 [NIFLUMIC ACID]	> 30 µM	> 10 µM
O=C1c2cccc3c2[C@H](CCC3)CN1[C@@H]1CN2CCC1CC2 [PALONOSETRON]	0.89 µM	> 30 µM
OC[C@H]1O[C@@H](n2cnc3c2NC=NC[C@H]3O)C[C@@H]1O [PENTOSTATIN]	> 30 µM	> 30 µM
O=C1c2ccccc2C(=O)C1c1ccccc1 [PHENINDIONE]	> 30 µM	> 10 µM
Cc1cccc(C)c1NC(=O)CC12CCCN1CCC2 [PILSICAINIDE]	–	> 30 µM
CN[C@@H](C)[C@@H](O)c1ccccc1 [PSEUDOEPHEDRINE]	> 30 µM	> 10 µM
CCCN1CC(NS(=O)(=O)N(CC)CC)CC2Cc3c(O)cccc3CC21 (stereo not given) [QUINAGOLIDE]	6.5 µM	> 30 µM
C[C@]12CCC(=O)C[C@@H]1CC[C@@H]1[C@@H]2CC[C@]2(C)[C@@H](O)CC[C@@H]12 [STANOLONE]	> 30 µM	> 30 µM
O=C1OC(OC(=O)c2cccnc2Nc2cccc(C(F)(F)F)c2)c2ccccc21 (stereo not given) [TALNIFLUMATE]	> 30 µM	> 30 µM
C[C@]12C=CC(=O)C=C1CC[C@@H]1[C@@H]2CC[C@]2(C)OC(=O)CC[C@@H]12 [TESTOLACTONE]	> 30 µM	> 10 µM
CCOC(=O)c1c(CSc2ccccc2)n(C)c2cc(Br)c(O)c(CN(C)C)c12 [UMIFENOVIR]	0.61 µM	> 30 µM
